Test results from patent US11857644B2, “Multi-signal fluorescent probe for early diagnosis of tumors, and preparation and use thereof” (Hunan Cancer Hospital, priority 2022, dated 2024).

Experiments:
[1] = Fluorescence detection of ONOO^− by the probe (limit of detection); details: organic phase:aqueous phase (PBS) 5:5, room temperature, 15 min
Description: (§1) The multi-signal fluorescent probe was dissolved with dimethyl sulfoxide (DMSO) to obtain a 1 mM probe solution. A 1 mM ONOO^− aqueous solution and a 1 mM Na2S2 aqueous solution were prepared.
(§2) 20 μL of the 1 mM probe solution, 980 μL of analytically pure CH3CN, the required amount of the 1 mM ONOO^− or Na2S2 aqueous solution and the required amount of phosphate buffered saline (PBS) were added into a 2 mL sample tube. A volume ratio of an organic phase to an aqueous phase was kept at 5:5 for all tests (a total volume of each test sample was 2 mL).
For example, when it was required to explore the fluorescence intensity of the multi-signal fluorescent probe after reacted with […] ONOO^−, the experiment was formulated as follows.
(§3) L of the 1 mM probe solution, 980 μL of analytically pure CH3CN, 20 μL of the 1 mM ONOO^− aqueous solution and 980 μL of PBS were added into a 2 mL sample tube. The reaction mixture was mixed evenly under shaking at room temperature for 15 min. Then, the fluorescence emission intensity of the reaction mixture could be measured under the 350 nm excitation wavelength. Other steps were performed as above. The limit of detection (LOD) for ONOO^− was 42.12 nM, and the LOD for Na2S2 was 38.45 nM. Fluorescence spectra of the multi-signal fluorescent probe in the detection of peroxynitrite and sodium disulfide were shown in FIG. 2. […]

[2] = Fluorescence detection of Na2S2 by the probe (limit of detection); details: organic phase:aqueous phase (PBS) 5:5, room temperature
Description: as §1, §2
as §3, with “The reaction mixture was mixed evenly under shaking at room temperature for 15 min.” left out, “Other steps were performed as above. The limit of detection (LOD) for ONOO^− was 42.12 nM, and the LOD for Na2S2 was 38.45 nM.” left out
The multi-signal fluorescent probe for reactive oxygen was dissolved in a solution, in which a volume ratio of DMSO to the aqueous phase was 5:5. […] Accordingly, a specific analyte can be detected by the specific excitation and fluorescence emission signal. The ONOO^− and Na2S2 can be distinguished by using different excitation wavelengths and fluorescence emission signals. […]

[3] = Fluorescence response selectivity against other species; details: OH, t-BuO, 1O2, NO, GSH, Cys, Hcy, SO2, NAC, H2S, halides, amino acids, NaHS, NaHSO3, EtSH, PhSH, n-Butylamine, aniline
Description: Regarding a method for detecting ONOO^− and Na2S2 in cells, unless otherwise specified, a probe molecule is dissolved at room temperature for analytical detection, where a volume ratio of an organic phase to an aqueous phase is 5:5. The organic phase is acetonitrile (CH3CN), and the aqueous phase is formed by PBS (pH=7.4) and an aqueous solution of the analyte.
The multi-signal fluorescent probe for reactive oxygen was dissolved in a solution, in which a volume ratio of […] to the aqueous phase was 5:5. The multi-signal fluorescent probe emitted 492 nm green light under 380 nm excitation wavelength after reacted with ONOO^−, and emitted 548 nm yellow light under 410 nm excitation wavelength after reacted with Na2S2. Accordingly, a specific analyte can be detected by the specific excitation and fluorescence emission signal. The ONOO^− and Na2S2 can be distinguished by using different excitation wavelengths and fluorescence emission signals. […] The LOD for ONOO^− is 42.12 nM, and the LOD for Na2S2 is 38.45 nM. In summary, the multi-signal fluorescent probe can realize the high-sensitivity discrimination and detection of ONOO^− and Na2S2.

Which “limit of detection (LOD) for ONOO^−” value [1] does the source give for `CCN1c2ccccc2Sc2cc3c(Cl)cc(=O)oc3cc21` [multi-signal fluorescent probe, 4-chloro-11-ethylpyrano[2,3-b]phenothiazin-2(11H)-one] here?
Its value is 42.12 nM.

What about the “LOD for Na2S2” value [2] of the same compound?
Its value is 38.45 nM.

And the “fluorescence response to interfering species” value [3]?
Its value is “no significant response”.
